From patent US9120780B2, “Indole or indazole derivative or salt thereof” (TAIHO PHARMACEUTICAL CO., LTD., priority 2011, dated 2015)

What was measured:
[1] = system: Human gastric cancer cells (NCI-N87); experiment: Antitumor effect in subcutaneous transplantation model of human gastric cancer cell line NCI-N87; assay type: in vivo, nude mice; details: for anti-tumor effect versus comparative compounds 6 and 7 at the same dose (RTV on day 15): 2 mg/kg/day oral for all compounds, Student-t test; for inhibition of tumor growth (relative tumor volume, FIG. 1): 2 mg/kg/day orally once per day for 14 days, nude mice, NCI-N87; for anti-tumor effect versus comparative compounds 6 and 7 at increased dose (RTV): Examples at 2 mg/kg/day oral, comparative compounds 6 and 7 at 10 mg/kg/day
Description: Human gastric cancer cells (NCI-N87) (obtained from ATCC) were subcutaneously transplanted in nude mice, and at the time when the tumor volume of the nude mice in which the cancer cells had been survived became approximately 140 to 210 mm^3, stratified randomization was performed so that the average tumor volume of each group (6 animals were assigned to one group (grouping: on day 0)) became uniform. The compounds 1, 6, and 9 of the present invention and the comparative compounds 6 (the compound of Example 21 in WO 2010/106290) and 7 (the compound of Example 1 in WO 2010/106290) were orally administered daily once per day from day 1 for 14 days. Note that the comparative compounds were synthesized according to the method described in WO 2010/106290 (Table 22).
The doses of 2 mg/kg/day and 10 mg/kg/day were used for the comparative compounds 6 and 7, and the dose of 2 mg/kg/day was used for the compounds of Examples of 1, 6, and 9 of the present invention.
In order to compare the transition over time of the tumor growth in the administration of each test compound, the relative tumor volume (RTV) was calculated according to the following equation when the tumor volume on the grouping day was defined as 1 for the growth rate of tumor, and the transition of the average value of the RTV of each individual was shown in FIG. 1. RTV=(Tumor volume on tumor volume measurement day)/(Tumor volume when grouped) (Mathematical Formula 1)

[2] = system: SK-BR-3 cells; experiment: Measurement of cell growth inhibition (crystal violet staining); assay type: cell-based; details: Homo sapiens, 72 hours culture with test substance
Description: Cell growth was measured by a crystal violet staining method. […] The cells were cultured in a 5% CO2 incubator at 37° C. for 24 hours, and then test substances were added to the plate, followed by culturing for further 72 hours. […] The plate was left to stand at room temperature for 20 minutes for staining the cells. The plate was washed with water and dried, and 100 μL of a mixed solution of 0.05 M NaH2PO4 and ethanol (mixture in equal amounts) was added to each well. The absorbance at 540 nm was measured with a microplate reader (MTP-450, Corona Electric Co., Ltd.) as an index of the number of cells in each well. The inhibition rate (%) of cell growth by a compound of the present invention was determined by the following equation using the absorbance of a drug-untreated group (control) as a control. […] Inhibition rate (%)=(C−T)/C×100 T: absorbance in a well to which a test substance was added C: absorbance in a well to which no test substance was added

[3] = biological target: human HSP90 alpha protein (N-terminal, amino acids 2-236) (Homo sapiens (Human), UniProt P07900); experiment: Measurement of HSP90-binding activity (AlphaScreen competitive assay, biotin-labeled geldanamycin); details: inhibition of biotin-labeled geldanamycin binding to purified HSP90; read-out: HSP-binding activity IC50
Description: First, a solution of purified HSP90 was prepared as follows. […] The pET-HSP90N was introduced into Escherichia coli cells (BL21 (DE3), Stratagene Inc.), and then the Escherichia coli cells were cultured in the presence of 0.5 mM isopropyl-beta-D-thiogalactopyranoside (Sigma-Aldrich Corp.) at 37° C. for 4 hours. The Escherichia coli cells were collected, suspended in a lysis buffer (50 mM Tris-HCl (pH 7.5), 200 mM NaCl), and sonicated. The sonicated cell solution was centrifuged (40,000×g, 20 minutes) to obtain supernatant as a crude extract. The crude extract was fractionated by Ni Sepharose High Performance (GE Healthcare Japan Corporation) chromatography and HiLoad 26/60 Superdex 75 pg (GE Healthcare Japan Corporation), and the fraction in which HSP90 protein was concentrated was prepared so as to be a 50 mM Tris-HCl (pH 7.5)/20% glycerol solution as a purified HSP90 solution. The purified HSP90 solution was divided and stored at −80° C. until use.
The HSP90-binding activity was measured by an AlphaScreen competitive assay system. […] After reaction at room temperature for 2 hours, biotin-labeled geldanamycin was added to each reaction solution in an amount of 40 nM, followed by reaction for further 1 hour. […] After reaction in a dark place at room temperature for 1 hour, the fluorescence intensity in each well was measured with a multilabel plate reader, EnVision (Perkin Elmer, Inc.). The inhibition rate (%) of biotin-labeled geldanamycin binding by a compound of the present invention was determined by the following equation using the fluorescence signal of a test substance-free group (control) as a control. […] Inhibition rate (%)=(C−T)/C×100 T: signal in a well to which a test substance was added C: signal in a well to which no test substance was added

Compound	IC50 [2] [nM]	IC50 [3] [nM]	anti-tumor effect versus comparative compounds 6 and 7 at the same dose (RTV on day 15) [1]	inhibition of tumor growth (relative tumor volume, FIG. 1) [1]	anti-tumor effect versus comparative compounds 6 and 7 at increased dose (RTV) [1]
CCc1cc(C(N)=O)ccc1-n1nc(C(C)C)c2c(-n3cnc(-c4cnn(C)c4)c3)cccc21 [Example 6, 3-Ethyl-4-(3-isopropyl-4-(4-(1-methyl-1H-pyrazol-4-yl)-1H-imidazol-1-yl)-1H-indazol-1-yl)benzamide]	30	100	significantly stronger anti-tumor effects than the comparative compounds 6 and 7	inhibited the tumor growth within one week from the start of the administration	significantly stronger anti-tumor effect than any of the comparative compounds 6 and 7
CC(C)c1nn(-c2ccc(C(N)=O)c(NC(C)(C)C)c2)c2cccc(-n3cnc(-c4cnn(C)c4)c3)c12 [Example 9, 2-(Tert-butylamino)-4-(3-isopropyl-4-(4-(1-methyl-1H-pyrazol-4-yl)-1H-imidazol-1-yl)-1H-indazol-1-yl)benzamide]	10	260	significantly stronger anti-tumor effects than the comparative compounds 6 and 7	inhibited the tumor growth within one week from the start of the administration	significantly stronger anti-tumor effect than any of the comparative compounds 6 and 7
CC(C)c1nn(-c2ccc(C(N)=O)c(NC(C)(C)C)c2)c2cccc(-n3cnc(-c4cccnc4)c3)c12 [Example 1, 2-(Tert-butylamino)-4-(3-isopropyl-4-(4-(pyridin-3-yl)-1H-imidazol-1-yl)-1H-indazol-1-yl)benzamide]	20	170	significantly stronger anti-tumor effects than the comparative compounds 6 and 7	inhibited the tumor growth within one week from the start of the administration	significantly stronger anti-tumor effect than any of the comparative compounds 6 and 7
CC(C)Nc1cc(C(N)=O)ccc1-n1nc(C(F)(F)F)c2c(-n3cnc(-c4cnn(C)c4)c3)cccc21 [Example 20, 3-(Isopropylamino)-4-(4-(4-(1-methyl-1H-pyrazol-4-yl)-1H-imidazol-1-yl)-3-(trifluoromethyl)-1H-indazol-1-yl)benzamide]	90	140			
CC(C)c1nn(-c2ccc(C(N)=O)nc2)c2cccc(-n3cnc(-c4cnn(C)c4)c3)c12 [Example 7, 5-(3-Isopropyl-4-(4-(1-methyl-1H-pyrazol-4-yl)-1H-imidazol-1-yl)-1H-indazol-1-yl)-2-pyridinecarboxyamide]	1190	370			

The next lines start with results.

IC50 [2] [nM]	IC50 [3] [nM]	Compound	anti-tumor effect versus comparative compounds 6 and 7 at the same dose (RTV on day 15) [1]	inhibition of tumor growth (relative tumor volume, FIG. 1) [1]	anti-tumor effect versus comparative compounds 6 and 7 at increased dose (RTV) [1]
30	120	CCCc1cn(-c2ccc(C(N)=O)cc2CC)c2cccc(-n3cnc(-c4cnn(C)c4)c3)c12 [Example 49, 3-Ethyl-4-{4-(4-(1-methyl-1H-pyrazolo-4-yl)-3-propyl-1H-imidazolo-1-yl)-1H-indol-1-yl}benzamide]			
120	140	CC(C)Nc1cc(C(N)=O)ccc1-n1nc(C(F)(F)F)c2c(-n3cnc(-c4cccnc4)c3)cccc21 [Example 22, 3-(Isopropylamino)-4-(4-(4-(pyridin-3-yl)-1H-imidazol-1-yl)-3-(trifluoromethyl)-1H-indazol-1-yl)benzamide]			
